Tested on: yeast genes (level of expressed mRNA)
Assay: DNA chip analysis of expressed mRNA of yeast genes after 2 h culture with a toxic chemical substance
Assay type: cell-based, Saccharomyces cerevisiae S288C
Description: Yeast (Saccharomyces cerevtisiae S288C (α SUC2mal mel gap2 CUP1)) were cultured at 25° C. on YPD medium (yeast extract 1%, polypepton 2%, glucose 2%). One of toxic chemical substances was added to the cell at logarithmic growth phase, and the cell was further cultured for two hours. Cell was cultured without any chemical substance in the same condition, and was used as control. Concentrations of the chemical substances were defined to inhibit the growth of the yeast but not lead to death.
After the completion of cultivation, the culture was centrifuged to collect the cells. To the cells, sodium acetate buffer (50 mM sodium acetate, 10 mM EDTA, 1% SDS) was added, and the mixture was shaken at 65° C. for five minutes, followed by returning to room temperature, and obtaining the supernatant, which procedure was repeated two times. To the supernatant, ½ amount of a solution of phenol/chloroform was added, and the mixture was centrifuged to give a supernatant, which was added with an equal amount of chloroform, and the mixture was centrifuged to give a supernatant. To the supernatant, an equal amount of isopropanol containing 0.3 M sodium acetate was added, and the mixture was allowed to stand at room temperature for 30 minutes, after which the mixture was centrifuged to give a sediment of the whole RNAs. Seventy % ethanol was added to the sediment, and the mixture was again centrifuged to give a sediment, which was then dried and dissolved in water. mRNA was isolated from the whole RNAs as followings. In view of the fact that a poly A chain is attached to the 3′ terminus of mRNA, a polynucleotide having a poly T structure which was immobilized on the surface of latex beads was used to trap the mRNA, and then the mRNA was washed and eluted with spine column (Oligotex-dT30<Super>mRNA Purification Kit, Takara). Reverse transcription of the mRNA was conducted with a reverse transcriptase (Super Script II Reverse Transcriptase; catalogue No. 18064-014, GibcoBRL) using fluorescence-labeled nucleotides to give cDNAs that were introduced with Cy3-dUTP or Cy5-dUTP during the reverse transcription.
The labeled cDNAs were dissolved in TE buffer (10 mM Tris-HCl/1 mM EDTA, pH8.0), and the solution was dropped on the DNA chip containing the whole genes of yeast (DNA Chip Research Inc. Japan) so that the cDNAs were hybridized on the DNA chip at 65° C. for over 12 hours. The fluoresces intensity of the DNA chip was read with a scanner, and the ratio relative to the fluorescence intensity resulting from the absence of chemical substance was estimated as the following, which is shown in Tables 1 to 9: [formula]
In the Tables, “Intensity” indicated in the rightmost column is a value of the level of expressed mRNA of each gene in control cells as divided by the average level of the expressions of the whole genes.

Substance: HgCl2 [(3)]
- The level of expressed mRNA in the presence of chemical substance/ (yeast gene YFL010C, ratio to control without chemical substance, 2 h culture): 1.3
- The level of expressed mRNA in the presence of chemical substance/ (yeast gene YFL024C, ratio to control without chemical substance, 2 h culture): 1.1
- The level of expressed mRNA in the presence of chemical substance/The level of expressed mRNA in the absence of chemical substance (yeast gene YFL028C): 0.7
- The level of expressed mRNA in the presence of chemical substance/ (yeast gene YFL032W, ratio to control without chemical substance, 2 h culture): 1.6
- The level of expressed mRNA in the presence of chemical substance/The level of expressed mRNA in the absence of chemical substance (yeast gene YFL043C): 0.6
- The level of expressed mRNA in the presence of chemical substance/in the absence of chemical substance (yeast gene YGL035C): 4.3
- The level of expressed mRNA in the presence of chemical substance/ (yeast gene YGL037C, ratio to control without chemical substance, 2 h culture): 6.5
- The level of expressed mRNA in the presence of chemical substance/ (yeast gene YGL047W, ratio to control without chemical substance, 2 h culture): 1.6
- The level of expressed mRNA in the presence of chemical substance/ (yeast gene YGL053W, ratio to control without chemical substance, 2 h culture): 1.2
- The level of expressed mRNA in the presence of chemical substance/ (yeast gene YGL121C, ratio to control without chemical substance, 2 h culture): 1.4
- The level of expressed mRNA in the presence of chemical substance/The level of expressed mRNA in the absence of chemical substance (yeast gene YGL158W): 1.9
- The level of expressed mRNA in the presence of chemical substance/ (yeast gene YGL199C, ratio to control without chemical substance, 2 h culture): 1.7
- The level of expressed mRNA in the presence of chemical substance/The level of expressed mRNA in the absence of chemical substance (yeast gene YGL229C): 0.9
- The level of expressed mRNA in the presence of chemical substance/ (yeast gene YGR101W, ratio to control without chemical substance, 2 h culture): 1.2
- The level of expressed mRNA in the presence of chemical substance/ (yeast gene YGR110W, ratio to control without chemical substance, 2 h culture): 2.2
- The level of expressed mRNA in the presence of chemical substance/ (yeast gene YGR130C, ratio to control without chemical substance, 2 h culture): 0.6
- The level of expressed mRNA in the presence of chemical substance/The level of expressed mRNA in the absence of chemical substance (yeast gene YGR136W): 1.3
- The level of expressed mRNA in the presence of chemical substance/ (yeast gene YGR154C, ratio to control without chemical substance, 2 h culture): 2.2
- The level of expressed mRNA in the presence of chemical substance/The level of expressed mRNA in the absence of chemical substance (yeast gene YGR189C): 1.5
- The level of expressed mRNA in the presence of chemical substance/The level of expressed mRNA in the absence of chemical substance (yeast gene YGR213C): 1.0
- The level of expressed mRNA in the presence of chemical substance/ (yeast gene YGR221C, ratio to control without chemical substance, 2 h culture): 0.9
- The level of expressed mRNA in the presence of chemical substance/The level of expressed mRNA in the absence of chemical substance (yeast gene YGR257C): 0.9
- The level of expressed mRNA in the presence of chemical substance/in the absence of chemical substance (yeast gene YGR287C): 1.3
- The level of expressed mRNA in the presence of chemical substance/The level of expressed mRNA in the absence of chemical substance (yeast gene YHR004C): 0.8
- The level of expressed mRNA in the presence of chemical substance/The level of expressed mRNA in the absence of chemical substance (yeast gene YHR071W): 0.6
- The level of expressed mRNA in the presence of chemical substance/ (yeast gene YHR138C, ratio to control without chemical substance, 2 h culture): 2.2
- The level of expressed mRNA in the presence of chemical substance/The level of expressed mRNA in the absence of chemical substance (yeast gene YHR139C): 6.8
- The level of expressed mRNA in the presence of chemical substance/The level of expressed mRNA in the absence of chemical substance (yeast gene YHR142W): 2.1
- The level of expressed mRNA in the presence of chemical substance/ (yeast gene YHR199C, ratio to control without chemical substance, 2 h culture): 3.2
- The level of expressed mRNA in the presence of chemical substance/ (yeast gene YIL023C, ratio to control without chemical): 2.1
- The level of expressed mRNA in the presence of chemical substance/ (yeast gene YIL041W, ratio to control without chemical substance, 2 h culture): 2.1
- The level of expressed mRNA in the presence of chemical substance/ (yeast gene YIL087C, ratio to control without chemical substance, 2 h culture): 3.4
- The level of expressed mRNA in the presence of chemical substance/The level of expressed mRNA in the absence of chemical substance (yeast gene YIL123W): 1.2
- The level of expressed mRNA in the presence of chemical substance/The level of expressed mRNA in the absence of chemical substance (yeast gene YIL140W): 1.5
- The level of expressed mRNA in the presence of chemical substance/ (yeast gene YJL057C, ratio to control without chemical substance, 2 h culture): 1.6
- The level of expressed mRNA in the presence of chemical substance/ (yeast gene YJL066C, ratio to control without chemical substance, 2 h culture): 1.2
- The level of expressed mRNA in the presence of chemical substance/in the absence of chemical substance (yeast gene YJL070C): 1.1
- The level of expressed mRNA in the presence of chemical substance/The level of expressed mRNA in the absence of chemical substance (yeast gene YJL073W): 2.5
- The level of expressed mRNA in the presence of chemical substance/ (yeast gene YJL082W, ratio to control without chemical substance, 2 h culture): 2.4
- The level of expressed mRNA in the presence of chemical substance/The level of expressed mRNA in the absence of chemical substance (yeast gene YJL089W): 1.0
- The level of expressed mRNA in the presence of chemical substance/The level of expressed mRNA in the absence of chemical substance (yeast gene YJL116C): 1.3
- The level of expressed mRNA in the presence of chemical substance/ (yeast gene YJL151C, ratio to control without chemical substance, 2 h culture): 3.2
- The level of expressed mRNA in the presence of chemical substance/ (yeast gene YJL152W, ratio to control without chemical substance, 2 h culture): 1.8
- The level of expressed mRNA in the presence of chemical substance/ (yeast gene YJL161W, ratio to control without chemical substance, 2 h culture): 1.5
- The level of expressed mRNA in the presence of chemical substance/in the absence of chemical substance (yeast gene YJL167W): 1.4
- The level of expressed mRNA in the presence of chemical substance/ (yeast gene YJL171C, ratio to control without chemical substance, 2 h culture): 2.8
- The level of expressed mRNA in the presence of chemical substance/in the absence of chemical substance (yeast gene YJL216C): 2.2
- The level of expressed mRNA in the presence of chemical substance/The level of expressed mRNA in the absence of chemical substance (yeast gene YJR004C): 3.4
- The level of expressed mRNA in the presence of chemical substance/ (yeast gene YJR008W, ratio to control without chemical substance, 2 h culture): 1.2
- The level of expressed mRNA in the presence of chemical substance/ (yeast gene YJR054W, ratio to control without chemical): 0.3
- The level of expressed mRNA in the presence of chemical substance/The level of expressed mRNA in the absence of chemical substance (yeast gene YJR086W): 0.8
- The level of expressed mRNA in the presence of chemical substance/The level of expressed mRNA in the absence of chemical substance (yeast gene YKL008C): 2.0
- The level of expressed mRNA in the presence of chemical substance/The level of expressed mRNA in the absence of chemical substance (yeast gene YKL013C): 1.4
- The level of expressed mRNA in the presence of chemical substance/The level of expressed mRNA in the absence of chemical substance (yeast gene YKL039W): 2.4
- The level of expressed mRNA in the presence of chemical substance/The level of expressed mRNA in the absence of chemical substance (yeast gene YKL041W): 1.1
- The level of expressed mRNA in the presence of chemical substance/ (yeast gene YKL071W, ratio to control without chemical substance, 2 h culture): 5.4

Source: patent US20050112573A1, “Method of detecting toxic substance” (priority 2001, published 2005)
